Measured values from the supplement of paper PMC7661543.
± gives the standard deviation of the averaged measurements.

Experiments:
Assay in all cases: relative cell number vs DMSO control (72 h) (% of DMSO); higher = less growth inhibition (more cells)
Details in all cases: sgRNA knockout: sgNT
BT-20 = system: BT-20
Protocol: (§1)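 QMAP-Seq: a pool of 5 breast cancer cell lines (ZR-75-1, SKBR3, HCC-38, MDA-MB-231, BT-20), each carrying 12 doxycycline-inducible Cas9 sgRNA perturbations (11 knockouts plus non-targeting sgNT), was treated with compounds for 72 h at four 10-fold doses (10 nM-10 uM or 1 nM-1 uM range). Barcodes were amplified and sequenced, and cell number was interpolated from 293T spike-in standard curves. The result is expressed as % of the median of DMSO wells. Two biological replicates.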

ZR-75-1 = system: ZR-75-1
Protocol: as §1

MDA-MB-231 = system: MDA-MB-231
Protocol: as §1

HCC-38 = system: HCC-38
Protocol: as §1

SKBR3 = system: SKBR3
Protocol: as §1

SMILES	relative cell number (BT-20; 10 nM)	relative cell number (BT-20; 100 nM)	relative cell number (BT-20; 1000 nM)	relative cell number (BT-20; 10000 nM)	relative cell number (ZR-75-1; 10 nM)	relative cell number (ZR-75-1; 100 nM)	relative cell number (ZR-75-1; 1000 nM)	relative cell number (ZR-75-1; 10000 nM)	relative cell number (MDA-MB-231; 10 nM)	relative cell number (MDA-MB-231; 100 nM)	relative cell number (MDA-MB-231; 1000 nM)	relative cell number (MDA-MB-231; 10000 nM)	relative cell number (HCC-38; 10 nM)	relative cell number (HCC-38; 100 nM)	relative cell number (HCC-38; 1000 nM)	relative cell number (HCC-38; 10000 nM)	relative cell number (SKBR3; 10 nM)	relative cell number (SKBR3; 100 nM)	relative cell number (SKBR3; 1000 nM)	relative cell number (SKBR3; 10000 nM)	relative cell number (BT-20; 1 nM)	relative cell number (ZR-75-1; 1 nM)	relative cell number (MDA-MB-231; 1 nM)	relative cell number (HCC-38; 1 nM)	relative cell number (SKBR3; 1 nM)
Cc1ccc(C(=O)Cn2c3c(sc2=N)CCCC3)cc1 [PifithrinAlpha]	135 ± 2.2	95.61 ± 0.61	103 ± 1.8	77.5 ± 1.6	121 ± 13	90.9 ± 20	61.5 ± 23	37.7 ± 11	114 ± 41	85.3 ± 57	94.3 ± 30	57.2 ± 3.8	91.7 ± 2.4	91.4 ± 4.6	83.2 ± 14	90.2 ± 8.3	133 ± 10	84.2 ± 16	85.6 ± 2.5	67.1 ± 6.8					
c1ccc2c(Oc3nc(Nc4ccc(N5CCOCC5)cc4)c4ncn(C5CCCCC5)c4n3)cccc2c1 [Purmorphamine]	84.2 ± 13	99.65 ± 0.55	85.43 ± 0.29	79.3 ± 11	97.6 ± 49	84.6 ± 39	92.7 ± 11	52.3 ± 1.9	95.7 ± 9.6	75.6 ± 12	97 ± 66	52 ± 8.8	99.2 ± 3.6	95.6 ± 7.1	90.2 ± 1.9	71.8 ± 6.4	96.9 ± 34	124 ± 43	75.9 ± 29	51.1 ± 11					
O=C(O)C(Cc1c[nH]c2ccccc12)N1C(=O)c2ccccc2C1=O (stereo not given) [RG108]	82.3 ± 16	70.3 ± 4.6	102 ± 4.9	102 ± 14	94.8 ± 3.9	76.2 ± 6.3	98.5 ± 2.5	71.4 ± 41	96.8 ± 28	96.5 ± 4	80.5 ± 17	79.7 ± 30	87.6 ± 8	88.2 ± 2.6	83.03 ± 0.26	97.2 ± 1.7	97.1 ± 11	64.7 ± 21	81 ± 16	73.2 ± 5.8					
CNC(=O)c1cc(Oc2ccc(NC(=O)Nc3ccc(Cl)c(C(F)(F)F)c3)c(F)c2)ccn1 [Regorafenib]	94.2 ± 7.3	94.9 ± 19	116 ± 46	42.7 ± 9.8	81.3 ± 52	68.8 ± 21	98.2 ± 40	22.1 ± 1.5	102 ± 13	114.3 ± 0.95	94.3 ± 26	32.7 ± 7.6	105.7 ± 0.71	113 ± 7.7	110 ± 2.3	61.9 ± 11	84.4 ± 8.2	98.8 ± 11	101 ± 16	38.2 ± 5					
COc1cc(OC)c(/C=C/S(=O)(=O)Cc2ccc(OC)c(NCC(=O)O)c2)c(OC)c1 [Rigosertib]	96.5 ± 1.7	70.2 ± 4	29.8 ± 11	29.5 ± 3.1	115 ± 13	18.8 ± 0.89	16.6 ± 2.9	16.3 ± 4.1	97.2 ± 1.3	94.6 ± 9.7	22.9 ± 3.4	21.6 ± 4.6	96.39 ± 0.69	44.2 ± 2.3	26.9 ± 2.6	24.8 ± 2.4	88.9 ± 21	5.08 ± 2.9	11 ± 1	11.1 ± 1.8					
CCc1c2c(nc3ccc(O)cc13)-c1cc3c(c(=O)n1C2)COC(=O)[C@]3(O)CC [SN38]	77.6 ± 9.2	45.3 ± 2.9	31.9 ± 5.3		39.7 ± 5.6	36.2 ± 4.4	25.4 ± 4.1		38 ± 19	21.8 ± 3.3	19.5 ± 2		35.7 ± 5.1	19.6 ± 4.8	14.5 ± 6		35 ± 16	23.2 ± 7.1	25 ± 0.91		90.7 ± 2	57.1 ± 2.3	111 ± 8.8	97.2 ± 7.5	67.7 ± 30
